Test results from patent US20190048052A1, “ANTI-MICROBIAL PEPTIDES AND COATINGS” (Board of Regents of the University of Nebraska, priority 2016, published 2019).
Residues, ends and D or L forms follow the SMILES beside them.

How the values were obtained:
Format in all cases: cell-based, Staphylococcus aureus
S. aureus USA300 [1] = test: Killing kinetics by colony counting; conditions: 10^5 CFU S. aureus USA300, colony counting
Experimental: Killing kinetic experiments were conducted similar to antibacterial assays described above with the following modifications (Wang et al. (2012) Antimicrob. Agents Chemother., 56:845-856). Aliquots of cultures (10^5 CFU) treated with TetraF2W peptides were taken at 15, 30, 50, 90, and 120 minutes, diluted 100-fold, and plated on Luria-Bertani (LB) agar plates. Colonies were counted after overnight incubation at 37° C.

S. aureus USA300 [2] = test: Propidium iodide membrane permeation (Example 3); conditions: 3.1 μM
Experimental: FIGS. 15A and 15B show the growth inhibition (FIG. 15A) and propidium iodide-based membrane permeation (FIG. 15B) of S. aureus USA300 in TSB media by 3.1 μM of TetraF2W-RR and its single arginine variants (Table 8) at 37° C. with shaking at 100 rpm.
Fluorescence spectroscopy was also used to follow bacterial killing. In brief, μL of serially diluted 10× peptide concentrations were done in 96-well coming COSTAR microtiter plates. Propidium iodide at a fixed concentration of 20 μM per well was added to each well which was finally incubated with 88 μL of S. aureus USA300 (with a final OD600 0.1) with continuous shaking at 100 rpm with meander corner well shaking, 37° C. in a FLUOstar® Omega (BMG LABTECH Inc., NC) microplate reader. The plates were read every 5 minutes for a total duration of 2 hours with excitation and emission wavelengths at 584 nm and 620 nm, respectively.

S. aureus USA300 [3] = test: Preformed biofilm disruption (XTT); conditions: 25 μM, 24 hour preformed biofilms
Experimental: Three types of experiments were conducted to evaluate the anti-biofilm activity of these peptides against S. aureus USA300, which was grown in tryptic soy broth (TSB) media in flat bottom, 96-well, polystyrene microtiter plates (Mishra et al. (2015) RSC Advances 5:59758-59769; Dean et al. (2011) BMC Microbiol., 11:114).
The third experiment evaluates the ability of the peptide to disrupt the biofilms of S. aureus USA300 formed in 24 hours. S. aureus USA300 (10^5 CFU/mL) in fresh TSB media was made from an exponentially growing culture. 200 μL of this bacterial culture was added to each well of the microtiter plates. The plates are then incubated at 37° C. for 24 hours to allow biofilm formation. Media was then carefully removed followed by washing with sterile 1×PBS to remove any unattached bacteria. Solution containing 20 μL of 10× peptide solution and 180 μL of fresh TSB were added. The plates were again incubated at 37° C. for another 24 hours. The extent of peptide disruption of biofilms was quantified using the same XTT method described above.

S. aureus USA300 [4] = tested on: S. aureus USA300
Method in brief: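 USA300 (10^5 CFU/mL) biofilms grown statically in TSB for 24 h at 37° C, washed, then exposed to peptide in fresh TSB for another 24 h at 37° C. Residual biomass read by crystal violet staining at 600 nm; viable cells by 10% XTT, 2 h at 37° C, absorbance 450 nm. Biofilm reduction expressed as percent of untreated wells.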

S. aureus USA300 [5] = test: Propidium iodide membrane permeation
Experimental: Fluorescence spectroscopy was also used to follow bacterial killing. In brief, a serially diluted 10× peptide (10 μL) was made in 96-well coming COSTAR microtiter plates. Propidium iodide (2 μL) was added at 50 μM to each well which was finally incubated with S. aureus USA300 bacteria (88 μL at a final OD600 ˜0.1) with continuous shaking at 100 rpm, 37° C. in a FLUOstar® Omega (BMG LABTECH Inc, NC) microplate reader. The plates were read every 5 minutes for a total duration of 2 hours with excitation and emission wavelengths at 584 nm and 620 nm respectively. Plots were made using averaged readings from duplicated experiments after subtraction of the media control.

S. aureus USA300 [6] = test: Confocal microscopy of preformed biofilms, LIVE/DEAD staining; conditions: 25 μM
Experimental: S. aureus USA300 (10^5 CFU/mL) was made from exponentially growing bacteria. 1800 μL was added to the chamber of cuvettes (borosilicate cover glass systems), and was incubated for 37° C., 24 hours for biofilm formation. Media was then pipetted out and chambers were washed with 1×PBS to remove non-adhered cells. To disrupt the preformed biofilms, 200 μL of 10× stocks of the peptide was added followed by 1800 μL of TSB. Control cuvettes contained water instead of peptide. The cuvettes were again incubated for another 24 hours at 37° C. Subsequently, the supernatant was pipetted out and the chambers were washed with 1×PBS. For evaluation under confocal microscope the biofilms were stained with […] of LIVE/DEAD® kit (Invitrogen Molecular Probes) according to the manufacturer's instructions. The samples were examined with a confocal laser scanning microscope (Zeiss 710) and the data processed using Zen 2010 software.

## CC[C@H](C)[C@H](NC(=O)[C@H](CCCNC(=N)N)NC(=O)[C@H](CCCNC(=N)N)NC(=O)[C@H](CC(C)C)NC(=O)[C@H](Cc1c[nH]c2ccccc12)NC(=O)[C@H](Cc1c[nH]c2ccccc12)NC(=O)[C@@H](N)Cc1c[nH]c2ccccc12)C(=O)N[C@@H](Cc1c[nH]c2ccccc12)C(N)=O [TetraF2W-RR, WWWLRRIW] (H-WWWLRRIW-NH2; N-terminus assumed)
S. aureus USA300 [1]
  time in which all the bacteria were killed: 90 min
S. aureus USA300 [2]
  membrane permeation by propidium iodide: most potent
S. aureus USA300 [3]
  disruption of preformed biofilms: ~77%
S. aureus USA300 [4]; 6.2 μM
  killing in preformed biofilms (XTT): only the WT was active
S. aureus USA300 [4]; 12.5 μM
  killing in preformed biofilms (XTT), words: nearly all S. aureus USA300 was eliminated
S. aureus USA300 [5]
  propidium iodide fluorescence change after treatment: most effective in damaging the membranes
S. aureus USA300 [6]
  killing in 24 hour preformed biofilms (LIVE/DEAD confocal): capable of killing S. aureus USA300 in 24 hour biofilms
